Results from paper PMC4076632, “VAV3 mediates resistance to breast cancer endocrine therapy” (Breast Cancer Research : BCR, 2014).

Target: T1, estrogen receptor α (ERα) (Homo sapiens, UniProt P03372)
T1 construct: gene ESR1
T1 sequence (P03372 1-595): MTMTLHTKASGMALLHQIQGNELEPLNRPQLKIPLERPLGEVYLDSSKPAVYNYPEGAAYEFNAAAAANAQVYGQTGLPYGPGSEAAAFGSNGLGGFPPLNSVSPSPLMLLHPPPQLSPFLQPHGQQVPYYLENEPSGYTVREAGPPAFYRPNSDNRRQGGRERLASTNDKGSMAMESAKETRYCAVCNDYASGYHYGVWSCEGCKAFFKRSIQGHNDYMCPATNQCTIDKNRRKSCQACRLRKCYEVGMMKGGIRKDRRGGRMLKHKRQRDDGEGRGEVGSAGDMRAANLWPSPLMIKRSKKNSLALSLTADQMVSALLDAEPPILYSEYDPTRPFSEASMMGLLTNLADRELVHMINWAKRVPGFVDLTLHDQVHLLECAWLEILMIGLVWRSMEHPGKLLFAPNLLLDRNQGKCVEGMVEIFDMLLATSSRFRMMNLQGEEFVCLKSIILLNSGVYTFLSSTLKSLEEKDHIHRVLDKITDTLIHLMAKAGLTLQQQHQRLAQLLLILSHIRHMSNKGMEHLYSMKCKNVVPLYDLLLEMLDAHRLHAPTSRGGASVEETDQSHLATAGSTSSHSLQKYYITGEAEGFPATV
Assay: ERα agonist fluoligand competition assay (Cerep) with fluorescein-labeled estradiol
Assay type: binding

OCc1ccc(-c2nn(Cc3ccccc3)c3ccccc23)o1 [YC-1, 3-(5′-hydroxymethyl-2′-furyl)-1-benzylindazole]
Ki: 26 µM
